# Measurements reported in paper PMC6277767, “Broad and Region-Specific Impacts of the Synthetic Cannabinoid CP 55,940 in Adolescent and Adult Female Mouse Brains” (Frontiers in Molecular Neuroscience, 2018).
# System: CD1 female mouse brain lipidome
# Assay: Brain-region lipid levels (HPLC/MS/MS lipidomics) 2 h after single i.p. 3 mg/kg CP 55,940 vs vehicle
# Type: in vivo
# Parameters: N-arachidonoyl phenylalanine level, Mean / N-stearoyl tryptophan level, Mean / N-stearoyl proline level, Mean / N-stearoyl leucine level, Mean / N-stearoyl phenylalanine level, Mean / N-stearoyl serine level, Mean / N-stearoyl methionine level, Mean: unit: moles per gram
# Method: The Bloomington Institutional Animal Care and Use Committee of Indiana University reviewed and approved the animal procedures. Female mice from the CD1 strain were utilized to match our study examining THC’s effects on the brain lipidome ([Leishman et al., 2018]). Mice were given a single i.p. injection of either 3 mg/kg CP or 1:1:18 cremophor:ethanol:saline vehicle (please refer to the section “3 mg/kg CP Is Relevant for Synthetic Cannabinoid Abuse and Has Stronger Effects on the Female Mouse Brain Lipidome During Adolescence” for a justification of dose and use of female mice). Three different age groups were given injections: PND 35 and PND 50 adolescents, and adult mice (PND 113). At least eight mice in each age group received CP and at least eight received vehicle. Matching the THC study time course ([Leishman et al., 2018]), mice were sacrificed via rapid decapitation 2 h after injection. Brains were immediately removed and flash-frozen in liquid nitrogen, and then stored at -80°C until dissections were performed. Brains were dissected on an ice-cold dissection plate into the following regions: STR, HIPP, CER, THAL, CTX, HYP, MID, and STEM. These abbreviations for these brain areas will be used exclusively when discussing the results generated by these specific dissections. Each dissected area was immediately placed in liquid nitrogen and then stored at -80°C until used for lipid extraction.
# Tissue extracts were performed as previously described ([Bradshaw et al., 2006]; [Stuart et al., 2013]; [Raboune et al., 2014]; [Leishman et al., 2016a],[b], [2017], [2018]). First, samples were shock frozen in liquid nitrogen, weighed, and transferred to a centrifuge tube. The mass of the largest sample was multiplied by 50 to determine how many milliliters of HPLC-grade methanol (Fisher, Fair Lawn, NJ, United States) to add. Then, samples were spiked with 500 pmol deuterium-labeled NAGly (d8NAGly; Cayman Chemical, Ann Arbor, MI, United States). Samples were placed on ice in darkness for 2 h then individually homogenized and centrifuged at 19,000 × g for 20 min at 20°C. Supernatants were diluted with HPLC water (purified in house) to make a solution of 75% water, 25% supernatant. Lipids were partially purified on C18 solid phase extraction columns (Agilent, Palo Alto, CA, United States). A series of four elutions with 1.5 mL of 60%, 75%, 85%, and 100% methanol were collected ([Stuart et al., 2013]; [Leishman et al., 2016a],[b], [2018]).
# As previously described ([Bradshaw et al., 2006]; [Tan et al., 2006]; [Smoum et al., 2010]; [Stuart et al., 2013]; [Tortoriello et al., 2013]; [Raboune et al., 2014]; [Leishman et al., 2016a],[b], [2017], [2018]), samples were analyzed using an Applied Biosystems API 3000 triple quadrupole mass spectrometer with electrospray ionization (Foster City, CA, United States). Using an Agilent XDB-C18 reversed phase analytical column and optimized mobile phase gradients, 20 μL from each elution were chromatographed. Two Shimadzu 10ADvp pumps (Columbia, MD, United States) provided the pressure for gradient elution. Mobile phase A: 20% methanol, 80% water (v/v) and 1 mM ammonium acetate (Sigma, St. Louis, MO, United States). Mobile phase B: 100% methanol, 1 mM ammonium acetate. Every method run began with 0% mobile phase B, reached 100% mobile phase B flowing at 0.2 mL/min, and gradually returned to 0% mobile phase B.
# This screening library will be referred to as the lipidome when discussing data from this study. HPLC/MS/MS data were analyzed using Analyst software (Applied Biosystems) ([Bradshaw et al., 2006]; [Tan et al., 2006]; [Stuart et al., 2013]; [Tortoriello et al., 2013]; [Raboune et al., 2014]; [Leishman et al., 2016a],[b], [2017], [2018]). Chromatograms (Supplementary Figure 3) were generated by determining the retention time of analytes from the analytical column with a [M-1] or [M+1] parent peak and a fragmentation peak corresponding to the programmed values. […]
# [1] = cortex, PND 35, 3 mg/kg CP 55,940
# [2] = cortex, PND 35 adolescent female mice, 3 mg/kg CP 55,940
# [3] = hippocampus, PND 50, 3 mg/kg CP 55,940 vs Veh
smiles,measurement,setting,value
"CCCCCCC(C)(C)c1ccc([C@@H]2C[C@H](O)CC[C@H]2CCCO)c(O)c1 [CP 55,940]",N-oleoyl valine Magnitude (x Veh level),[1],1.33 x Veh level
same,N-palmitoyl leucine Direction (rel to Veh),[1],↑
same,"N-palmitoyl leucine, Magnitude (x Veh level)",[1],1.52 x Veh level
same,N-palmitoyl serine Direction (rel to Veh),[1],↓
same,"N-palmitoyl serine, Magnitude (x Veh level)",[1],0.77 x Veh level
same,N-palmitoyl tyrosine Direction (rel to Veh),[1],↑
same,N-palmitoyl tyrosine Magnitude (x Veh level),[1],1.25 x Veh level
same,N-palmitoyl valine Direction (rel to Veh),[1],↑
same,N-palmitoyl valine Magnitude (x Veh level),[1],1.57 x Veh level
same,N-stearoyl serine Direction (rel to Veh),[1],↓
same,N-stearoyl serine Magnitude (x Veh level),[1],0.84 x Veh level
same,N-stearoyl tyrosine Direction (rel to Veh),[1],↑
same,N-stearoyl tyrosine Magnitude (x Veh level),[1],1.46 x Veh level
same,N-stearoyl valine Direction (rel to Veh),[1],↑
same,N-stearoyl valine Magnitude (x Veh level),[1],1.32 x Veh level
same,PGF2α Direction (rel to Veh),[1],↑
same,PGF2α Magnitude (x Veh level),[1],1.19 x Veh level
same,phosphoLEA Direction (rel to Veh),[1],↑
same,phosphoLEA Magnitude (x Veh level),[1],1.51 x Veh level
same,"2-arachidonoyl glycerol level, Mean",[2],1.2E-09
same,"2-linoleoyl glycerol level, Mean",[2],1.12E-10
same,"2-oleoyl glycerol level, Mean",[2],5.02E-09
same,"2-palmitoyl glycerol level, Mean",[2],5.49E-09
same,"6-ketoPGF1α level, Mean",[2],5.64E-12
same,"Arachidonic acid level, Mean",[2],1.78E-09
same,"Linoleic acid level, Mean",[2],6.06E-10
same,"N- stearoyl valine level, Mean",[2],1.46E-12
same,"N-arachidonoyl GABA level, Mean",[2],2.26E-11
same,"N-arachidonoyl alanine level, Mean",[2],2.81E-12
same,"N-arachidonoyl dopamine level, Mean",[2],BDL
same,"N-arachidonoyl ethanolamine level, Mean",[2],1.13E-10
same,"N-arachidonoyl glycine level, Mean",[2],1.35E-11
same,"N-arachidonoyl methionine level, Mean",[2],2.69E-13
same,"N-arachidonoyl phenylalanine level, Mean",[2],7.25E-13
same,"N-arachidonoyl proline level, Mean",[2],BDL
same,"N-arachidonoyl serine level, Mean",[2],2.41E-12
same,"N-arachidonoyl taurine level, Mean",[2],1.3E-10
same,"N-arachidonoyl tryptophan level, Mean",[2],BDL
same,"N-arachidonoyl tyrosine level, Mean",[2],8.47E-13
same,"N-docosahexaenoyl GABA level, Mean",[2],4.81E-12
same,"N-docosahexaenoyl alanine level, Mean",[2],7.37E-13
same,"N-docosahexaenoyl ethanolamine level, Mean",[2],1.21E-10
same,"N-docosahexaenoyl glycine level, Mean",[2],1.18E-12
same,"N-docosahexaenoyl leucine level, Mean",[2],1.02E-12
same,"N-docosahexaenoyl phenylalanine level, Mean",[2],5.48E-13
same,"N-docosahexaenoyl proline level, Mean",[2],BDL
same,"N-docosahexaenoyl serine level, Mean",[2],5.64E-12
same,"N-docosahexaenoyl tryptophan level, Mean",[2],BDL
same,"N-docosahexaenoyl tyrosine level, Mean",[2],5.7E-13
same,"N-docosahexaenoyl valine level, Mean",[2],2.57E-13
same,"N-linoleoyl GABA level, Mean",[2],3.78E-12
same,"N-linoleoyl alanine level, Mean",[2],6.3E-13
same,"N-linoleoyl ethanolamine level, Mean",[2],2.31E-10
same,"N-linoleoyl glycine level, Mean",[2],3.61E-13
same,"N-linoleoyl leucine level, Mean",[2],1.58E-13
same,"N-linoleoyl phenylalanine level, Mean",[2],1.48E-13
same,"N-linoleoyl proline level, Mean",[2],BDL
same,"N-linoleoyl serine level, Mean",[2],1.38E-11
same,"N-linoleoyl tryptophan level, Mean",[2],BDL
same,"N-nervonoyl valine level, Mean",[2],BDL
same,"N-oleoyl GABA level, Mean",[2],9.1E-12
same,"N-oleoyl alanine level, Mean",[2],2.8E-12
same,"N-oleoyl dopamine level, Mean",[2],BDL
same,"N-oleoyl ethanolamine level, Mean",[2],4.68E-10
same,"N-oleoyl glycine level, Mean",[2],5.53E-12
same,"N-oleoyl leucine level, Mean",[2],4.34E-13
same,"N-oleoyl methionine level, Mean",[2],4.2E-13
same,"N-oleoyl phenylalanine level, Mean",[2],2.01E-12
same,"N-oleoyl serine level, Mean",[2],5.9E-11
same,"N-oleoyl tyrosine level, Mean",[2],6.76E-13
same,"N-oleoyl valine level, Mean",[2],4.65E-13
same,"N-palmitoyl GABA level, Mean",[2],1.28E-11
same,"N-palmitoyl alanine level, Mean",[2],4.96E-12
same,"N-palmitoyl ethanolamine level, Mean",[2],1.43E-10
same,"N-palmitoyl glycine level, Mean",[2],1.28E-11
same,"N-palmitoyl leucine level, Mean",[2],1.76E-12
same,"N-palmitoyl methionine level, Mean",[2],1.41E-12
same,"N-palmitoyl phenylalanine level, Mean",[2],3.73E-12
same,"N-palmitoyl proline level, Mean",[2],7.7E-14
same,"N-palmitoyl serine level, Mean",[2],1.08E-11
same,"N-palmitoyl tryptophan level, Mean",[2],9.75E-13
same,"N-palmitoyl tyrosine level, Mean",[2],1.99E-12
same,"N-palmitoyl valine level, Mean",[2],1.52E-12
same,"N-stearoyl GABA level, Mean",[2],1.48E-11
same,"N-stearoyl alanine level, Mean",[2],1.04E-11
same,"N-stearoyl ethanolamine level, Mean",[2],5.63E-11
same,"N-stearoyl glycine level, Mean",[2],7.24E-12
same,"N-stearoyl leucine level, Mean",[2],1.55E-12
same,"N-stearoyl methionine level, Mean",[2],1.68E-12
same,"N-stearoyl phenylalanine level, Mean",[2],3.37E-12
same,"N-stearoyl proline level, Mean",[2],3.31E-14
same,"N-stearoyl serine level, Mean",[2],1.35E-11
same,"N-stearoyl tryptophan level, Mean",[2],3.26E-12
same,"N-stearoyl tyrosine level, Mean",[2],3.04E-13
same,"Oleic acid level, Mean",[2],6.83E-09
same,"PGE2 level, Mean",[2],4.31E-10
same,"PhosphoLEA level, Mean",[2],8.98E-12
same,2-linoleoyl glycerol Direction (relative to Veh),[3],↓
same,2-linoleoyl glycerol Magnitude (x Veh level),[3],0.73 x Veh level
same,6-ketoPGF1α Direction (relative to Veh),[3],↑
same,6-ketoPGF1α Magnitude (x Veh level),[3],1.46 x Veh level
same,"Linoleic acid, Direction (relative to Veh)",[3],↓
